Columns and labels:
Format in all cases: biochemical
[1] = tested on: α-isomaltosyl-transferring enzyme from Arthrobacter globiformis A19; test: Action on saccharides (substrates, TLC); parameters: key: −: there was found no substrate change before and after the enzymatic reaction; +: there were found both the reduction of substrate and the formation of cyclotetrasaccharide after the enzymatic reaction; conditions: partially purified enzyme, 2 units/g substrate, 2% (w/v) substrate, 30° C., pH 6.0, 24 hours
Description: (§1) To examine the saccharides in the supernatant, they were separated from the supernatant by silica gel thin-layer chromatography (abbreviated as “TLC” hereinafter) using, as a developer, a mixture solution of n-butanol, pyridine, and water (=6:4:1), and, as a thin-layer plate, “[…] 60”, an aluminum plate (20×20 cm) for TLC commercialized by […]. The coloration of both the separated total sugars by the sulfuric acid-methanol method and the reducing saccharides by the diphenylamine-aniline method detected a non-reducing saccharide at a position with an Rf value of about 0.31, which was positive on the former detection method but negative on the latter detection method.
(§2) It was tested whether saccharides can be used as substrates for the α-isomaltosyl-transferring enzyme. For the purpose, a solution of maltose, maltotriose, maltotetraose, maltopentaose, maltohexaose, maltoheptaose, isomaltose, isomaltotriose, panose, isomaltosylmaltose, isopanose, α,α-trehalose, kojibiose, nigerose, α,β-trehalose, cellobiose, gentibiose, maltitol, maltotriitol, lactose, sucrose, α-cyclodextrin, β-cyclodextrin, γ-cyclodextrin, soluble starch, pullulan, or dextran was prepared. To each of the above solutions was added two units/g substrate of a purified specimen of either α-isomaltosyl-transferring enzyme from Bacillus globisporus C9 obtained by the method in Experiment 4, Bacillus globisporus C11 obtained by the method in Experiment 7, Bacillus globisporus N75 obtained by the method in Experiment 11, or Arthrobacter ramosus S1 obtained by the method in Experiment 15, or a partially purified α-isomaltosyl-transferring enzyme from Arthrobacter globiformis A19 obtained by the method in Experiment 15. The resulting each solution was adjusted to give a substrate concentration of 2% (w/v) and incubated at 30° C. and pH 6.0 for 24 hours. The enzyme solutions before and after the enzymatic reactions were respectively analyzed on TLC as disclosed in Experiment 1 to confirm whether the enzymes acted on these substrates.

[2] = tested on: α-isomaltosyl-transferring enzyme from Arthrobacter ramosus S1; test: Action on saccharides (substrates, TLC); parameters: key: −: there was found no substrate change before and after the enzymatic reaction; +: there were found both the reduction of substrate and the formation of cyclotetrasaccharide after the enzymatic reaction; conditions: 2 units/g substrate, 2% (w/v) substrate, 30° C., pH 6.0, 24 hours
Description: as §1, §2

[3] = tested on: α-isomaltosyl-transferring enzyme from Bacillus globisporus C11; test: Action on saccharides (substrates, TLC); parameters: key: −: there was found no substrate change before and after the enzymatic reaction; +: there were found both the reduction of substrate and the formation of cyclotetrasaccharide after the enzymatic reaction; conditions: 2 units/g substrate, 2% (w/v) substrate, 30° C., pH 6.0, 24 hours
Description: as §1, §2

[4] = tested on: α-isomaltosyl-transferring enzyme from Bacillus globisporus C9; test: Action on saccharides (substrates, TLC); parameters: key: −: there was found no substrate change before and after the enzymatic reaction; +: there were found both the reduction of substrate and the formation of cyclotetrasaccharide after the enzymatic reaction; conditions: 2 units/g substrate, 2% (w/v) substrate, 30° C., pH 6.0, 24 hours
Description: as §1, §2

[5] = tested on: α-isomaltosyl-transferring enzyme from Bacillus globisporus N75; test: Action on saccharides (substrates, TLC); parameters: key: −: there was found no substrate change before and after the enzymatic reaction; +: there were found both the reduction of substrate and the formation of cyclotetrasaccharide after the enzymatic reaction; conditions: 2 units/g substrate, 2% (w/v) substrate, 30° C., pH 6.0, 24 hours
Description: as §1, §2

[6] = tested on: α-isomaltosyl-transferring enzyme from Arthrobacter globiformis A19; test: Specificity to transferring acceptor; conditions: partially purified enzyme, panose as saccharide donor, 10 units/g substrate, 3.2% (w/v), 30° C., pH 6.0, 24 hours
Summary of the method: (§3)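 Panose donor + test saccharide (equimolar-equal conc.), 3.2% (w/v) total, 10 units/g substrate enzyme; 30° C., pH 6.0, 24 h. GLC (FID) for mono/disaccharide acceptors, HPLC (RI) for tri- and larger. Scored +/−.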

[7] = tested on: α-isomaltosyl-transferring enzyme from Arthrobacter ramosus S1; test: Specificity to transferring acceptor; conditions: panose as saccharide donor, 10 units/g substrate, 3.2% (w/v), 30° C., pH 6.0, 24 hours
Summary of the method: as §3

[8] = tested on: α-isomaltosyl-transferring enzyme from Bacillus globisporus C11; test: Specificity to transferring acceptor; conditions: panose as saccharide donor, 10 units/g substrate, 3.2% (w/v), 30° C., pH 6.0, 24 hours
Summary of the method: as §3

[9] = tested on: α-isomaltosyl-transferring enzyme from Bacillus globisporus C9; test: Specificity to transferring acceptor; conditions: panose as saccharide donor, 10 units/g substrate, 3.2% (w/v), 30° C., pH 6.0, 24 hours
Summary of the method: as §3

[10] = tested on: α-isomaltosyl-transferring enzyme from Bacillus globisporus N75; test: Specificity to transferring acceptor; conditions: panose as saccharide donor, 10 units/g substrate, 3.2% (w/v), 30° C., pH 6.0, 24 hours
Summary of the method: as §3

Compound	Enzymatic action for forming cyclotetrasaccharide, Enzyme of Strain A19 [1]	Enzymatic action for forming cyclotetrasaccharide, Enzyme of Strain S1 [2]	Enzymatic action for forming cyclotetrasaccharide, Enzyme of Strain C11 [3]	Enzymatic action for forming cyclotetrasaccharide, Enzyme of Strain C9 [4]	Enzymatic action for forming cyclotetrasaccharide, Enzyme of Strain N75 [5]	Product of transferring reaction, Enzyme of Stain A19 [6]	Product of transferring reaction, Enzyme of Strain S1 [7]	Product of transferring reaction, Enzyme of Strain C11 [8]	Product of transferring reaction, Enzyme of Strain C9 [9]	Product of transferring reaction, Enzyme of Strain N75 [10]
OC[C@H]1O[C@@H](O[C@H]2[C@H](O)[C@@H](O)C(O)O[C@@H]2CO)[C@H](O)[C@@H](O)[C@H]1O (some centres unmarked) [Lactose, lactose]	−	−	−	−	−	+ (a saccharide-transferred product was formed in an amount of over one percent but below 10% to the total sugars)	+ (a saccharide-transferred product was formed in an amount of over one percent but below 10% to the total sugars)	+ (a saccharide-transferred product was formed in an amount of over one percent but below 10% to the total sugars)	+ (a saccharide-transferred product was formed in an amount of over one percent but below 10% to the total sugars)	+ (a saccharide-transferred product was formed in an amount of over one percent but below 10% to the total sugars)
OC[C@H]1O[C@H](O[C@H]2[C@H](O)[C@@H](O)[C@H](O)O[C@@H]2CO)[C@H](O)[C@@H](O)[C@@H]1O [Maltose, maltose]	−	−	−	−	−	+ (a saccharide-transferred product was formed in an amount of over one percent but below 10% to the total sugars)	+ (a saccharide-transferred product was formed in an amount of over one percent but below 10% to the total sugars)	+ (a saccharide-transferred product was formed in an amount of over one percent but below 10% to the total sugars)	+ (a saccharide-transferred product was formed in an amount of over one percent but below 10% to the total sugars)	+ (a saccharide-transferred product was formed in an amount of over one percent but below 10% to the total sugars)
OC[C@@H](O)[C@@H](O[C@H]1O[C@H](CO)[C@@H](O[C@H]2O[C@H](CO)[C@@H](O)[C@H](O)[C@H]2O)[C@H](O)[C@H]1O)[C@H](O)[C@@H](O)CO [Maltotriitol, maltotriitol]	−	−	−	−	−	+ (a saccharide-transferred product was formed in an amount of over one percent but below 10% to the total sugars)	+ (a saccharide-transferred product was formed in an amount of over one percent but below 10% to the total sugars)	+ (a saccharide-transferred product was formed in an amount of over one percent but below 10% to the total sugars)	+ (a saccharide-transferred product was formed in an amount of over one percent but below 10% to the total sugars)	+ (a saccharide-transferred product was formed in an amount of over one percent but below 10% to the total sugars)

Now from value to compound, other results behind:

Enzymatic action for forming cyclotetrasaccharide, Enzyme of Strain A19 [1]	Enzymatic action for forming cyclotetrasaccharide, Enzyme of Strain S1 [2]	Enzymatic action for forming cyclotetrasaccharide, Enzyme of Strain C11 [3]	Enzymatic action for forming cyclotetrasaccharide, Enzyme of Strain C9 [4]	Enzymatic action for forming cyclotetrasaccharide, Enzyme of Strain N75 [5]	Compound	Product of transferring reaction, Enzyme of Stain A19 [6]	Product of transferring reaction, Enzyme of Strain S1 [7]	Product of transferring reaction, Enzyme of Strain C11 [8]	Product of transferring reaction, Enzyme of Strain C9 [9]	Product of transferring reaction, Enzyme of Strain N75 [10]
−	−	−	−	−	OC[C@H]1O[C@H](O[C@H]2[C@H](O)[C@@H](O)[C@@H](O[C@H]3[C@H](O)[C@@H](O)[C@@H](O[C@H]4[C@H](O)[C@@H](O)C(O)O[C@@H]4CO)O[C@@H]3CO)O[C@@H]2CO)[C@H](O)[C@@H](O)[C@@H]1O (some centres unmarked) [Maltotetraose, maltotetraose]	+ (a saccharide-transferred product was formed in an amount of over one percent but below 10% to the total sugars)	+ (a saccharide-transferred product was formed in an amount of over one percent but below 10% to the total sugars)	+ (a saccharide-transferred product was formed in an amount of over one percent but below 10% to the total sugars)	+ (a saccharide-transferred product was formed in an amount of over one percent but below 10% to the total sugars)	+ (a saccharide-transferred product was formed in an amount of over one percent but below 10% to the total sugars)
−	−	−	−	−	OC[C@H]1O[C@H](O[C@H]2[C@H](O)[C@@H](CO)OC(O)[C@@H]2O)[C@H](O)[C@@H](O)[C@@H]1O (some centres unmarked) [Nigerose, nigerose]	+ (a saccharide-transferred product was formed in an amount of over one percent but below 10% to the total sugars)	+ (a saccharide-transferred product was formed in an amount of over one percent but below 10% to the total sugars)	+ (a saccharide-transferred product was formed in an amount of over one percent but below 10% to the total sugars)	+ (a saccharide-transferred product was formed in an amount of over one percent but below 10% to the total sugars)	+ (a saccharide-transferred product was formed in an amount of over one percent but below 10% to the total sugars)
